The source of these data is patent publication US7863335B2, “Non-antibiotic intervention of chlamydial infection” (The University of Medicine and Dentistry of New Jersey, priority 2004, dated 2011).

Broadly, the inhibition is the percentage by which the read-out fell short of the control.

Read-outs that look alike come from different tables or passages of the source. Where only a bound is given, the exact number is not on record here.

The test system of data set [1] is HeLa cells. Nature of the data set: Cytotoxicity judged by cellular morphology of HeLa cells. The format is cell-based, Human.
Data set [2] deals with HeLa cells. In words: DNA synthesis ([methyl-3H]thymidine incorporation) in HeLa cells. The format is cell-based, Human. How it is done: (§1) The lack of cytotoxic activity in GM6001 was further supported by measuring DNA synthesis. Subconfluent cells grown in 24 well plates were fed with medium (0.5 ml/well) containing indicated concentrations of GM6001 for 40 hours. 2 μl of [methyl-3H]thymidine (specific activity: 20 Ci/mmole, Moravek Biochemical, Brea, Calif.) was added into the culture and incubated for 2 hours. The amount of thymidine incorporated into DNA was determined as we previously described (3).
On the technique in general: Incorporation of labelled thymidine or its analogues reports DNA synthesis.

Data set [3] has as its system L2. In words: Dot blot analysis of MOMP, L2 growth in HeLa cells. It is filed as cell-based, Chlamydia trachomatis.
The subject of the next data set is MoPn (biovar mouse). In words: Chlamydial DNA synthesis of MoPn (biovar mouse). It is filed as cell-based, Chlamydia trachomatis. The following applies: dose response. As for the experimental part: We next tested whether GM6001 was also effective against the remaining two biovars of C. trachomatis. […] The effect of GM6001 on biovar mouse was determined by measuring chlamydial DNA synthesis with procedures that we previously detailed (1, 3).

For data set [4], the system named is Salmonella Enterica Serovar Typhimurium. In words: Intracellular growth of S. enterica in HeLa cells (colony-forming units). It is filed as cell-based. The following applies: 20 μM, 1.5 and 6 h, 50 μg/ml gentamycin.
Description: To assess whether its intracellular growth is affected by the inhibitor, HeLa cells were infected with a fresh culture of S. enterica grown to stationary phase as previously described (16). After washes to remove free bacteria, the cells were cultured with medium containing 50 μg/ml gentamycin (to kill any residual free bacteria) plus or minus 20 μM GM6001 for 1.5 and 6 h. Gentamycin was then removed by washes. Intracellular bacteria were released by 0.1% Triton X-100, serially diluted and plated onto LB agar plates. After overnight incubation at 37° C., colony-forming units were scored.
A further data set relates to A549 cells. In words: DNA synthesis ([methyl-3H]thymidine incorporation) in A549 cells. It is filed as cell-based, Human. How it is done:
as §1

The subject of data set [5] is L2 (biovar LGV). In words: Live images (light microscope) of inclusion formation in L2-infected HeLa cells. It is filed as cell-based, Chlamydia trachomatis. The following applies: in both the presence and absence of cycloheximide. An excerpt: The inhibition of L2 growth by GM6001 could be viewed directly under a light microscope without immunostaining. Shown in FIG. 1C are images obtained from live cultures.

Data set [6] relates to strain 434/bu of serovar L2 (L2, biovar LGV). In words: MOMP immunofluorescence of inclusion formation in L2-infected HeLa cells. The format is cell-based, Chlamydia trachomatis. As for the experimental part:
Human cervical carcinoma HeLa cells grown on coverslips were exposed to an EB stock of strain 434/bu of serovar L2 (L2, biovar LGV) for 2 hours, washed to remove free EBs, and cultured in medium containing indicated concentrations of GM6001 plus 1 μg/ml cycloheximide, an inhibitor of eukaryotic protein synthesis which is commonly used to facilitate chlamydial growth. 40 hours later, cells were fixed with methanol, and reacted for 1 hour with a monoclonal antibody against the major outer membrane protein (MOMP) of L2. After three washes with PBS, coverslips were reacted with fluorescein isothiocyanate-conjugated goat anti-mouse IgG (Sigma, St. Louis, Mo.) for 30 min. After additional washes, coverslips were mounted onto glass slides and viewed with a Nikon Eclypse E1000 fluorescent microscope.

The subject of data set [7] is L. delbrueckii (ATCC 12315). In words: Growth of L. delbrueckii in liquid culture (OD600). It is filed as cell-based, Lactobacillus delbrueckii. The following applies: 20 μM, hourly up to 5 h postinoculation. As for the experimental part:
(§2) An E. coli MG1655 colony was inoculated into 10 ml LB broth, which was then divided into 2 ml aliquots. After overnight culture, OD600 measurements were taken. An overnight L. delbrueckii (ATCC 12315) culture was diluted 1:100, and cultured in the presence or absence of 20 μM of GM 6001. OD600 values were measured hourly up to 5 h postinoculation.

Data set [8] deals with strain UW-3/Cx of serovar D (biovar trachomatis). In words: Chlamydial lipopolysacharide immunostaining of inclusion formation, serovar D in HeLa cells. The format is cell-based, Chlamydia trachomatis.
For data set [9], the system named is L2 (biovar LGV). In words: Dot blot analysis of MOMP, L2 growth in A549 cells. The format is cell-based, Chlamydia trachomatis. The note with it: 40 hours after infection, 1 μg/ml cycloheximide. As for the experimental part: Infection of A549 cells and inhibitor treatment were carried out as described above. 40 hours after infection, cells were lysed in 200 μl of H2O, a 50 μl sample of the resulting EB/RB extract was blotted onto Zeta Probe membrane (Bio-Rad), and sequentially reacted with the L2 MOMP antibody described above, and horseradish peroxidase-conjugated rabbit anti-mouse IgG.

The subject of the next data set is Chlamydia. Nature of the data set: Titration of infectious EBs produced by infected HeLa cells. It is filed as cell-based, Chlamydia trachomatis. As for the experimental part:
Inhibition of chlamydial growth was obtained when GM6001 and TAPI-0 was added to cultures at the end of the two hour attachment/entry period (FIGS. 1-3), a point where free unbound EBs had been removed by extensive washes. The entry-independent inhibition was also seen by titrating infectious EBs produced by infected HeLa cells (FIG. 6). […] At this point, EBs have already completed the entry phase and have differentiated into RBs in inclusions. Even when GM6001 treatment was started 24 h after infection, a point where the number of RBs peaks during the chlamydial developmental cycle, a 99% reduction in EB production was observed (FIG. 6).

For data set [10], the system named is Salmonella Enterica Serovar Typhimurium. In words: Growth of S. enterica as free-living organism in liquid medium (OD600). The format is cell-based.
Data set [11] concerns L2. Nature of the data set: Pretreatment of host HeLa cells or EBs with GM6001, immunostaining of L2 growth. It is filed as cell-based, Chlamydia trachomatis. How it is done:
To address whether suppression of chlamydial growth resulted from inhibition of host or bacterial enzymes, we determined the effect of pretreatment of EB and host cells with a hydroxamate on chlamydial growth. HeLa cells were cultured for 2 h with medium containing 20 °μM GM6001 and washed 3 times with medium before they were infected with a regular EB stock. Likewise, an EB stock was also incubated with GM6001, washed, and added to untreated HeLa cells. As control, GM6001 (final concentration: 20 μM) was added into and maintained in the culture medium after the attachment/entry period.

A further data set relates to E. coli MG1655. Nature of the data set: Growth of E. coli in LB broth (OD600). It is filed as cell-based, Escherichia coli. The following applies: overnight culture, concentrations indicated in FIG. 4A. As for the experimental part: as §2

For the compound `CNC(=O)[C@H](Cc1c[nH]c2ccccc12)NC(=O)[C@H](CC(C)C)NC(=O)OC(C)(C)C` [GM6001 Negative Control, N-t-butoxycarbonyl-L-leucyl-L-tryptophan methylamide], in the data set with HeLa cells [1] (data not shown), the “adverse effect on morphology of HeLa cells” value is listed as “no adverse effect”. For the same compound, in the data set on HeLa cells [2], the “DNA synthesis (thymidine incorporated into DNA)” value is given as “no adverse effect”. Moreover, in the data set on L2 [3], the “chlamydial (L2) growth, MOMP dot blot” value is listed as “no detectable effect”.

Take `CNC(=O)[C@H](Cc1c[nH]c2ccccc12)NC(=O)[C@@H](CC(=O)NO)CC(C)C` [GM6001]: in the data set on MoPn (biovar mouse), the “inhibition of MoPn growth (chlamydial DNA synthesis)” value is “dose-response curve of GM6001 inhibition of MoPn growth was obtained”. Also, the “cytotoxic effects based on morphology” value in the data set with HeLa cells [1] (uninfected or L2-infected HeLa cells) is reported as “no apparent cytotoxic effects”. For the same compound, the “growth of S. enterica inside HeLa cells (colony-forming units)” value in [4] is listed as “did not inhibit”. In addition, in the data set with A549 cells, the “DNA synthesis (thymidine incorporated into DNA)” value was “did not exhibit any inhibitory effect” and the “effect on cycloheximide-induced inhibition of DNA synthesis” value is listed as “no synergistic or additive effect”. In addition, in the data set with HeLa cells [2], the “DNA synthesis (thymidine incorporated into DNA)” value is “did not exhibit any inhibitory effect” and the “effect on cycloheximide-induced inhibition of DNA synthesis” value is recorded as “no synergistic or additive effect”. In the data set on L2 [3], the “chlamydial (L2) growth, MOMP dot blot” value is recorded as “no MOMP signals”. Moreover, in the data set with L2 (biovar LGV) [5], the “inhibition of L2 growth / inclusion formation in live cultures” value was “effective against chlamydial infection”. The “number of inclusions (L2 inclusion formation)” value in [6] (increasing concentrations of GM6001 plus 1 μg/ml cycloheximide, 40 hours) is given as “number of inclusions declined progressively”. In addition, the “growth of Lactobacillus delbrueckii (OD600)” value in data set [7] is recorded as “did not show any effects”. Further, in data set [8], the “inclusion formation by serovar D” value is “efficiently suppressed inclusion formation”. Moreover, in the data set on L2 (biovar LGV) [9], the “MOMP signal (L2 growth)” value is given as “no signal was detected”. For the same compound, the inhibition at 20 µM with Chlamydia (Chlamydia, HeLa, 20 μM, added at the end of attachment/entry period, read-out: inhibition of EB production) was above 100%. The “inhibition of EB production” value in the data set with Chlamydia (added 8 h after infection) is given as “comparable inhibitory activity”. Besides, the “reduction in EB production” value in the data set on Chlamydia (treatment started 24 h after infection) was 99%. The “growth of S. enterica in liquid medium” value in [10] is “had no effect”. Also, the “chlamydial infection after pretreatment of EB stock” value with L2 [11] (EB stock incubated with GM6001, washed, added to untreated HeLa cells) is given as “completely ineffective”. Further, the “chlamydial infection after pretreatment of host HeLa cells” value in the data set on L2 [11] (HeLa cells cultured 2 h with 20 μM GM6001, washed 3 times before infection) is listed as “completely ineffective”.

For `CC(C)C[C@H](CC(=O)NO)C(=O)N[C@@H](Cc1ccc2ccccc2c1)C(=O)N[C@@H](C)C(N)=O` [TAPI-0, N-(R)-[2-(Hydroxyaminocarbonyl)methyl]-4-methylpentanoyl-L-naphthylalanyl-L-alanine amide], in data set [6] (at both 7.5 and 15 μM), the “inhibition of L2 infection (MOMP immunofluorescence)” value was “strongly inhibited”. Moreover, the “growth of E. coli (OD600)” value in the data set with E. coli MG1655 is on record as “did not show any effects”.

In the case of `C[C@@H]1C[C@@H]([C@H](O)CC2CC(=O)NC(=O)C2)C(=O)[C@@H](C)C1` [cycloheximide], the “DNA synthesis (thymidine incorporated into DNA)” value in the data set on A549 cells (uninfected A549 cells, 40 hours treatment) is recorded as “effectively inhibited DNA synthesis activity”; with HeLa cells [2] (uninfected HeLa cells, 40 hours treatment) it was “effectively inhibited DNA synthesis activity”.
